Test results from ChEMBL document CHEMBL1201862, “PubChem BioAssay data set” (2004).
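Cells were grown in 96-well plates and exposed to each compound for 48 hours at five concentrations; endpoints were interpolated linearly between bracketing concentrations, or set to the highest concentration if not reached. GI50 is the concentration that inhibits growth by half.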 Calls of active or inactive are those of the source. Cut-off read from the data, not from the text of the source: active = GI50 up to about 1.1 µM and inactive = higher.

Tests used:
Assay in all cases: NCI anticancer screen, dose series, 48 h
TK-10 = tested on: TK-10
NCI-H226 = tested on: NCI-H226
SF-539 = tested on: SF-539
SK-MEL-5 = tested on: SK-MEL-5
HOP-62 = tested on: HOP-62
NCI-H522 = tested on: NCI-H522
HT-29 = tested on: HT-29
COLO 205 = tested on: COLO 205
SNB-19 = tested on: SNB-19
NCI/ADR-RES = tested on: NCI/ADR-RES
MDA-MB-435 = tested on: MDA-MB-435
SK-MEL-28 = tested on: SK-MEL-28
UACC-257 = tested on: UACC-257
MOLT-4 = tested on: MOLT-4
HCC 2998 = tested on: HCC 2998
A549 = tested on: A549
HL-60 = tested on: HL-60
DU-145 = tested on: DU-145
KM12 = tested on: KM12
MCF7 = tested on: MCF7
PC-3 = tested on: PC-3
SNB-75 = tested on: SNB-75
RPMI-8226 = tested on: RPMI-8226
U-251 = tested on: U-251
OVCAR-5 = tested on: OVCAR-5
SK-MEL-2 = tested on: SK-MEL-2
NCI-H460 = tested on: NCI-H460
SW-620 = tested on: SW-620
BT-549 = tested on: BT-549
HCT-15 = tested on: HCT-15
NCI-H23 = tested on: NCI-H23
ACHN = tested on: ACHN
IGROV-1 = tested on: IGROV-1
HOP-92 = tested on: HOP-92
A498 = tested on: A498
EKVX = tested on: EKVX
SF-268 = tested on: SF-268
UO-31 = tested on: UO-31
OVCAR-4 = tested on: OVCAR-4
Hs-578T = tested on: Hs-578T
CCRF-CEM = tested on: CCRF-CEM
OVCAR-8 = tested on: OVCAR-8
LOX IMVI = tested on: LOX IMVI
CAKI-1 = tested on: CAKI-1
Malme-3M = tested on: Malme-3M
T47D = tested on: T47D
RXF 393 = tested on: RXF 393
MDA-MB-231 = tested on: MDA-MB-231
M14 = tested on: M14
HCT-116 = tested on: HCT-116
SN12C = tested on: SN12C
MDA-N = tested on: MDA-N
SR = tested on: SR
786-0 = tested on: 786-0
OVCAR-3 = tested on: OVCAR-3
K562 = tested on: K562
SK-OV-3 = tested on: SK-OV-3
UACC-62 = tested on: UACC-62
SF-295 = tested on: SF-295

## CN(C)c1ccc(/C=N\NC(=O)Nc2cccc3ccccc23)cc1
TK-10
  GI50: 12.2 µM (inactive)
NCI-H226
  GI50: 0.208 µM (active)
SF-539
  GI50: 4.4 µM (inactive)
SK-MEL-5
  GI50: 3.97 µM (inactive)
HOP-62
  GI50: 8.67 µM (inactive)
NCI-H522
  GI50: 2.08 µM (inactive)
HT-29
  GI50: 2.62 µM (inactive)
COLO 205
  GI50: 4.99 µM (inactive)
SNB-19
  GI50: 2.46 µM (inactive)
NCI/ADR-RES
  GI50: 7.41 µM (inactive)
MDA-MB-435
  GI50: 0.927 µM (active)
SK-MEL-28
  GI50: 19.1 µM (inactive)
UACC-257
  GI50: 3.74 µM (inactive)
MOLT-4
  GI50: 4.56 µM (inactive)
HCC 2998
  GI50: 9.51 µM (inactive)
A549
  GI50: 9.57 µM (inactive)
HL-60
  GI50: 2.03 µM (inactive)
DU-145
  GI50: 6.71 µM (inactive)
KM12
  GI50: 2.61 µM (inactive)
MCF7
  GI50: 3.86 µM (inactive)
PC-3
  GI50: 6.62 µM (inactive)
SNB-75
  GI50: 9.02 µM (inactive)
RPMI-8226
  GI50: 4.28 µM (inactive)
U-251
  GI50: 5.82 µM (inactive)
OVCAR-5
  GI50: 19.4 µM (inactive)
SK-MEL-2
  GI50: 2.9 µM (inactive)
NCI-H460
  GI50: 4.31 µM (inactive)
SW-620
  GI50: 6.11 µM (inactive)
BT-549
  GI50: 11.7 µM (inactive)
HCT-15
  GI50: 1.53 µM
NCI-H23
  GI50: 4.75 µM (inactive)
ACHN
  GI50: 6.98 µM (inactive)
IGROV-1
  GI50: 9.91 µM (inactive)
HOP-92
  GI50: 20.3 µM (inactive)
A498
  GI50: 8.99 µM (inactive)
EKVX
  GI50: 0.215 µM (active)
SF-268
  GI50: 13 µM (inactive)
UO-31
  GI50: 13.2 µM (inactive)
OVCAR-4
  GI50: 15.5 µM (inactive)
Hs-578T
  GI50: 4.17 µM (inactive)
CCRF-CEM
  GI50: 4.26 µM (inactive)
OVCAR-8
  GI50: 14.9 µM (inactive)
LOX IMVI
  GI50: 4.15 µM (inactive)
CAKI-1
  GI50: 3.25 µM (inactive)
Malme-3M
  GI50: 4.03 µM (inactive)
T47D
  GI50: 2.73 µM (inactive)
RXF 393
  GI50: 20.7 µM (inactive)
MDA-MB-231
  GI50: 12.3 µM (inactive)
M14
  GI50: 5.37 µM (inactive)
HCT-116
  GI50: 5.52 µM (inactive)
SN12C
  GI50: 11.8 µM (inactive)
MDA-N
  GI50: 1.53 µM (inactive)
SR
  GI50: 1.6 µM (inactive)
786-0
  GI50: 5.74 µM (inactive)

## CC1NCCC(CC(=O)O)C1CC(=O)O (stereo not given)
TK-10
  GI50: > 100 µM (inactive)
OVCAR-3
  GI50: > 100 µM (inactive)
NCI-H226
  GI50: > 100 µM (inactive)
SK-MEL-5
  GI50: > 100 µM (inactive)
HOP-62
  GI50: > 100 µM (inactive)
NCI-H522
  GI50: > 100 µM (inactive)
HT-29
  GI50: > 100 µM (inactive)
COLO 205
  GI50: > 100 µM (inactive)
SNB-19
  GI50: > 100 µM (inactive)
NCI/ADR-RES
  GI50: > 100 µM (inactive)
MDA-MB-435
  GI50: > 100 µM (inactive)
SK-MEL-28
  GI50: > 100 µM (inactive)
UACC-257
  GI50: > 100 µM (inactive)
HCC 2998
  GI50: > 100 µM (inactive)
K562
  GI50: > 100 µM (inactive)
SK-OV-3
  GI50: > 100 µM (inactive)
A549
  GI50: > 100 µM (inactive)
HL-60
  GI50: > 100 µM (inactive)
DU-145
  GI50: > 100 µM (inactive)
KM12
  GI50: > 100 µM (inactive)
MCF7
  GI50: > 100 µM (inactive)
PC-3
  GI50: > 100 µM (inactive)
SNB-75
  GI50: 97.9 µM (inactive)
RPMI-8226
  GI50: > 100 µM (inactive)
UACC-62
  GI50: > 100 µM (inactive)
U-251
  GI50: > 100 µM (inactive)
OVCAR-5
  GI50: > 100 µM (inactive)
SK-MEL-2
  GI50: > 100 µM (inactive)
NCI-H460
  GI50: > 100 µM (inactive)
SW-620
  GI50: > 100 µM (inactive)
BT-549
  GI50: > 100 µM (inactive)
HCT-15
  GI50: > 100 µM
NCI-H23
  GI50: > 100 µM (inactive)
ACHN
  GI50: > 100 µM (inactive)
IGROV-1
  GI50: > 100 µM (inactive)
HOP-92
  GI50: > 100 µM (inactive)
A498
  GI50: > 100 µM (inactive)
EKVX
  GI50: > 100 µM (inactive)
SF-268
  GI50: > 100 µM (inactive)
UO-31
  GI50: > 100 µM (inactive)
OVCAR-4
  GI50: > 100 µM (inactive)
Hs-578T
  GI50: > 100 µM (inactive)
CCRF-CEM
  GI50: > 100 µM (inactive)
OVCAR-8
  GI50: > 100 µM (inactive)
LOX IMVI
  GI50: > 100 µM (inactive)
CAKI-1
  GI50: > 100 µM (inactive)
Malme-3M
  GI50: > 100 µM (inactive)
T47D
  GI50: > 100 µM (inactive)
RXF 393
  GI50: > 100 µM (inactive)
MDA-MB-231
  GI50: > 100 µM (inactive)
M14
  GI50: > 100 µM (inactive)
HCT-116
  GI50: > 100 µM (inactive)
SN12C
  GI50: > 100 µM (inactive)
SF-295
  GI50: > 100 µM (inactive)
MDA-N
  GI50: > 100 µM (inactive)
SR
  GI50: > 100 µM (inactive)
786-0
  GI50: > 100 µM (inactive)

## COC(=O)c1ccccc1C1CN=NC12Cc1ccc3ccccc3c1C2=O (stereo not given)
TK-10
  GI50: > 100 µM (inactive)
OVCAR-3
  GI50: 17.7 µM (inactive)
NCI-H226
  GI50: > 100 µM (inactive)
SF-539
  GI50: 73.8 µM (inactive)
SK-MEL-5
  GI50: 6.08 µM (inactive)
NCI-H522
  GI50: 80.4 µM (inactive)
COLO 205
  GI50: > 100 µM (inactive)
SNB-19
  GI50: > 100 µM (inactive)
NCI/ADR-RES
  GI50: > 100 µM (inactive)
MDA-MB-435
  GI50: 30.7 µM (inactive)
SK-MEL-28
  GI50: > 100 µM (inactive)
UACC-257
  GI50: > 100 µM (inactive)
MOLT-4
  GI50: 57.3 µM (inactive)
HCC 2998
  GI50: > 100 µM (inactive)
K562
  GI50: > 100 µM (inactive)
A549
  GI50: 85.3 µM (inactive)
HL-60
  GI50: 8.43 µM (inactive)
DU-145
  GI50: > 100 µM (inactive)
KM12
  GI50: 52.5 µM (inactive)
MCF7
  GI50: > 100 µM (inactive)
PC-3
  GI50: > 100 µM (inactive)
SNB-75
  GI50: > 100 µM (inactive)
RPMI-8226
  GI50: 13.4 µM (inactive)
UACC-62
  GI50: > 100 µM (inactive)
U-251
  GI50: > 100 µM (inactive)
OVCAR-5
  GI50: > 100 µM (inactive)
SK-MEL-2
  GI50: > 100 µM (inactive)
NCI-H460
  GI50: 80 µM (inactive)
SW-620
  GI50: > 100 µM (inactive)
BT-549
  GI50: > 100 µM (inactive)
HCT-15
  GI50: > 100 µM
ACHN
  GI50: > 100 µM (inactive)
IGROV-1
  GI50: > 100 µM (inactive)
HOP-92
  GI50: 97.9 µM (inactive)
A498
  GI50: > 100 µM (inactive)
EKVX
  GI50: > 100 µM (inactive)
SF-268
  GI50: > 100 µM (inactive)
UO-31
  GI50: > 100 µM (inactive)
OVCAR-4
  GI50: > 100 µM (inactive)
Hs-578T
  GI50: 94.4 µM (inactive)
CCRF-CEM
  GI50: 70.5 µM (inactive)
OVCAR-8
  GI50: > 100 µM (inactive)
LOX IMVI
  GI50: > 100 µM (inactive)
CAKI-1
  GI50: > 100 µM (inactive)
Malme-3M
  GI50: 30.8 µM (inactive)
T47D
  GI50: 21.1 µM (inactive)
RXF 393
  GI50: 78.3 µM (inactive)
MDA-MB-231
  GI50: > 100 µM (inactive)
M14
  GI50: > 100 µM (inactive)
SN12C
  GI50: > 100 µM (inactive)
SF-295
  GI50: 38.5 µM (inactive)
MDA-N
  GI50: > 100 µM (inactive)
SR
  GI50: 36.5 µM (inactive)
786-0
  GI50: > 100 µM (inactive)
